{"source": "patent US20230340012A1", "about": "“NATURAL AND SYNTHETIC COMPOUNDS FOR TREATING CANCER AND OTHER DISEASES” (PACIFIC ARROW LIMITED, priority 2009, published 2023)", "data": [{"tested_on": "cancer cells", "assay": "MTT cytotoxic assay of esterification products (Cytotoxicity activity)", "format": "cell-based, human", "conditions": "MTT cytotoxic assay, isolated esterification products of E4A", "source_text": "The peaks, fractions and compounds are selected according to the activities of times studies and the changes of peaks. Selecting the HPLC fractions for isolation is according to the cytotoxic activity of the reaction product obtained at a specific time. The compounds having strong to weak activities are selected and isolated. Selecting the HPLC fractions for isolation may be according to the cytotoxic activity of times studies and the change of peaks. The anti-cancer activities are the MTT studies of bone (U2OS), lung (H460), bladder (HTB-9), ovary (ES2), colon (HCT116), pancreas (Capan), ovary(OVCAR3), prostate (DU145), skin (SK-Mel-5), mouth (KB), kidney (A498), breast (MCF-7), liver (HepG2), brain (T98G), leukemia (K562), cervix (HeLa).\nEsterification of compound (A), (B), (C), (D1), (D2), (E), (F), (G), (H1), (H2), E4A, E4A2Y, (P1), P(2), terpene, isoprene, triterpenes, hydroxylated triterpenes, with acyl halide, wherein the halide comprise chloride, bromide, fluoride and iodide, wherein the acyl halide comprise acyl chloride, wherein acyl chloride comprise tigloyl chloride, angeloyl chloride, acetyl chloride, crotonoyl chloride, 3,3-Dimethylacryloyl chloride, senecioyl chloride, cinnamoyl chloride, pentenoyl chloride, hexanoyl chloride, benzoyl chloride, ethylbutyryl chloride, propionyl chloride, 2-propenoyl chloride, isobutyryl chloride, butyryl chloride, (2E)-2-pentenoyl chloride, 4-Pentenoyl chloride, 5-hexenoyl chloride, heptanoyl chloride, octanoyl chloride, nonanoyl chloride, decanoyl chloride, Lauroyl chloride, myristoyl chloride, oleoyl chloride. The compounds vary in composition when the time or temperature of the reaction is changed. The peaks, fractions and compounds are selected according to the activities of times studies and the changes of peaks. The compounds having strong to weak activities are selected and isolated. The anti-cancer activities (Cytotoxic Assay) are the MTT studies of bone (U2OS), lung (H460), bladder(HTB-9), ovary (ES2), colon (HCT116), pancreas (Capan), ovary(OVCAR3), prostate (DU145), skin (SK-Mel-5), mouth (KB), kidney (A498), breast (MCF-7), liver (HepG2), brain (T98G), leukemia (K562), cervix (HeLa). The active esterification products are purified with HPLC. The reaction product of mixtures and individual compounds are tested with MTT Cytotoxic Assay. Details of method are in Experiment 3 of the present application. A second esterification of compound can be selected from the above experiment results to produce new active compounds. A partial esterification compound is selected from the above experiments to perform a second or repeated with a third esterification with different acyl chloride in order to produce new active compounds with the experiments in the present application.\nMethod: 40 mg of triterpene core (fraction IV) was dissolved in 1 ml pyridine in a 50 ml tube. Reaction is started by adding 0.2 ml of acyl chloride (Tigloyl chloride, angeloyl chloride, Acetyl chloride, Crotonoyl chloride, 3,3-Dimethylacryloyl chloride(senecioyl chloride), Cinnamoyl chloride, Pentenoyl chloride, Hexanoyl chloride, benzoyl chloride or Ethylbutyryl chloride). The mixture is stirred for 5 sec, 1 min, 2 min, 5 min, 10 min, 30 min, 1 hr, 2 hr, 18 hr, 2 days or 3 days at 0° C., 25° C. or 75° C. temperature. At the end of reaction, 5 ml of 2N HCl or 1 M NaHCO3 is added to the reaction mixture. The solution is then extracted 3 times with 10 ml of ethyl acetate which is then evaporated under vacuum and at 45C and lyophilization. The reaction product is dissolved in 80% acetonitrile - 0.005% Trifluoroacetic acid or DMSO; and was separated with HPLC. Selecting the HPLC fractions for isolation is according to the cytotoxic activity of the reaction product obtained at a specific reaction time. The active esterification products are purified with HPLC. The reaction product of mixtures and individual compounds are tested with MTT cytotoxic assay. Structures are determined with NMR. […]", "values": [{"compound": "CC(C)=CC(=O)OCC1(C)C(O)CCC2(C)C1CCC1(C)C2CC=C2C3CC(C)(C)C(O)C(OC(=O)C=C(C)C)C3(COC(=O)C=C(C)C)C(O)CC21C", "note": "(stereo not drawn) [Compound B5]", "Cytotoxicity activity": "moderate"}, {"compound": "CC(C)=CC(=O)OCC1(C)C(OC(=O)C=C(C)C)CCC2(C)C1CCC1(C)C2CC=C2C3CC(C)(C)C(O)C(O)C3(COC(=O)C=C(C)C)C(O)CC21C", "note": "(stereo not drawn) [Compound B6]", "Cytotoxicity activity": "moderate"}, {"compound": "CC(C)=CC(=O)OCC1(C)C(O)CCC2(C)C1CCC1(C)C2CC=C2C3CC(C)(C)C(O)C(O)C3(COC(=O)C=C(C)C)C(OC(=O)C=C(C)C)CC21C", "note": "(stereo not drawn) [Compound B7]", "Cytotoxicity activity": "moderate"}, {"compound": "CC(C)=CC(=O)OCC1(C)C(O)CCC2(C)C1CCC1(C)C2CC=C2C3CC(C)(C)C(OC(=O)C=C(C)C)C(OC(=O)C=C(C)C)C3(COC(=O)C=C(C)C)C(O)CC21C", "note": "(stereo not drawn) [Compound B8]", "Cytotoxicity activity": "weak"}, {"compound": "CC(C)=CC(=O)OCC1(C)C(OC(=O)C=C(C)C)CCC2(C)C1CCC1(C)C2CC=C2C3CC(C)(C)C(O)C(OC(=O)C=C(C)C)C3(COC(=O)C=C(C)C)C(O)CC21C", "note": "(stereo not drawn) [Compound B9]", "Cytotoxicity activity": "weak"}, {"compound": "CC(C)=CC(=O)OCC1(C)C(OC(=O)C=C(C)C)CCC2(C)C1CCC1(C)C2CC=C2C3CC(C)(C)C(O)C(O)C3(COC(=O)C=C(C)C)C(OC(=O)C=C(C)C)CC21C", "note": "(stereo not drawn) [Compound B10]", "Cytotoxicity activity": "weak"}, {"compound": "CC(C)=CC(=O)OCC1(C)C(OC(=O)C=C(C)C)CCC2(C)C1CCC1(C)C2CC=C2C3CC(C)(C)C(OC(=O)C=C(C)C)C(O)C3(COC(=O)C=C(C)C)C(O)CC21C", "note": "(stereo not drawn) [Compound B11]", "Cytotoxicity activity": "weak"}, {"compound": "CC(C)=CC(=O)OCC1(C)C(O)CCC2(C)C1CCC1(C)C2CC=C2C3CC(C)(C)C(O)C(OC(=O)C=C(C)C)C3(COC(=O)C=C(C)C)C(OC(=O)C=C(C)C)CC21C", "note": "(stereo not drawn) [Compound B12]", "Cytotoxicity activity": "weak"}, {"compound": "CC(C)=CC(=O)OCC1(C)C(O)CCC2(C)C1CCC1(C)C2CC=C2C3CC(C)(C)C(OC(=O)C=C(C)C)C(O)C3(COC(=O)C=C(C)C)C(OC(=O)C=C(C)C)CC21C", "note": "(stereo not drawn) [Compound B13]", "Cytotoxicity activity": "weak"}, {"compound": "CC(C)=CC(=O)OCC1(C)C(OC(=O)C=C(C)C)CCC2(C)C1CCC1(C)C2CC=C2C3CC(C)(C)C(O)C(OC(=O)C=C(C)C)C3(COC(=O)C=C(C)C)C(O)CC21C", "note": "(stereo not drawn) [Compound B14]", "Cytotoxicity activity": "weak"}, {"compound": "CC(C)=CC(=O)OCC1(C)C(OC(=O)C=C(C)C)CCC2(C)C1CCC1(C)C2CC=C2C3CC(C)(C)C(OC(=O)C=C(C)C)C(OC(=O)C=C(C)C)C3(COC(=O)C=C(C)C)C(O)CC21C", "note": "(stereo not drawn) [Compound B15]", "Cytotoxicity activity": "weak"}, {"compound": "CC(C)=CC(=O)OCC1(C)C(O)CCC2(C)C1CCC1(C)C2CC=C2C3CC(C)(C)C(OC(=O)C=C(C)C)C(OC(=O)C=C(C)C)C3(COC(=O)C=C(C)C)C(OC(=O)C=C(C)C)CC21C", "note": "(stereo not drawn) [Compound B16]", "Cytotoxicity activity": "weak"}, {"compound": "CC(C)=CC(=O)OCC1(C)C(OC(=O)C=C(C)C)CCC2(C)C1CCC1(C)C2CC=C2C3CC(C)(C)C(OC(=O)C=C(C)C)C(O)C3(COC(=O)C=C(C)C)C(OC(=O)C=C(C)C)CC21C", "note": "(stereo not drawn) [Compound B17]", "Cytotoxicity activity": "weak"}, {"compound": "CC(C)=CC(=O)OCC1(C)C(OC(=O)C=C(C)C)CCC2(C)C1CCC1(C)C2CC=C2C3CC(C)(C)C(O)C(OC(=O)C=C(C)C)C3(COC(=O)C=C(C)C)C(OC(=O)C=C(C)C)CC21C", "note": "(stereo not drawn) [Compound B18]", "Cytotoxicity activity": "weak"}, {"compound": "CC(C)=CC(=O)OCC1(C)C(OC(=O)C=C(C)C)CCC2(C)C1CCC1(C)C2CC=C2C3CC(C)(C)C(OC(=O)C=C(C)C)C(OC(=O)C=C(C)C)C3(COC(=O)C=C(C)C)C(OC(=O)C=C(C)C)CC21C", "note": "(stereo not drawn) [Compound B19]", "Cytotoxicity activity": "none"}, {"compound": "CC(C)=CC(=O)OCC12C(O)CC3(C)C(=CCC4C5(C)CCC(O)C(C)(CO)C5CCC43C)C1CC(C)(C)C(OC(=O)C=C(C)C)C2OC(=O)C=C(C)C", "note": "(stereo not drawn) [Compound B20]", "Cytotoxicity activity": "moderate"}, {"compound": "CC(C)=CC(=O)OCC1(C)C(O)CCC2(C)C1CCC1(C)C2CC=C2C3CC(C)(C)C(OC(=O)C=C(C)C)C(OC(=O)C=C(C)C)C3(CO)C(O)CC21C", "note": "(stereo not drawn) [Compound B21]", "Cytotoxicity activity": "moderate"}, {"compound": "CC(C)=CC(=O)OC1C(OC(=O)C=C(C)C)C2(CO)C(OC(=O)C=C(C)C)CC3(C)C(=CCC4C5(C)CCC(O)C(C)(CO)C5CCC43C)C2CC1(C)C", "note": "(stereo not drawn) [Compound B22]", "Cytotoxicity activity": "moderate"}, {"compound": "CC(C)=CC(=O)OC1C(OC(=O)C=C(C)C)C2(CO)C(O)CC3(C)C(=CCC4C5(C)CCC(OC(=O)C=C(C)C)C(C)(CO)C5CCC43C)C2CC1(C)C", "note": "(stereo not drawn) [Compound B23]", "Cytotoxicity activity": "moderate"}, {"compound": "CC(C)=CC(=O)OC1C(OC(=O)C=C(C)C)C2(CO)C(O)CC3(C)C(=CCC4C5(C)CCC(O)C(C)(CO)C5CCC43C)C2CC1(C)C", "note": "(stereo not drawn) [Compound B24]", "Cytotoxicity activity": "moderate"}, {"compound": "CC(C)=CC(=O)OCC12C(O)CC3(C)C(=CCC4C5(C)CCC(O)C(C)(CO)C5CCC43C)C1CC(C)(C)C(OC(=O)C=C(C)C)C2O", "note": "(stereo not drawn) [Compound B25]", "Cytotoxicity activity": "moderate"}, {"compound": "CC(C)=CC(=O)OCC12C(O)CC3(C)C(=CCC4C5(C)CCC(O)C(C)(CO)C5CCC43C)C1CC(C)(C)C(O)C2OC(=O)C=C(C)C", "note": "(stereo not drawn) [Compound B26]", "Cytotoxicity activity": "moderate"}, {"compound": "CC(C)=CC(=O)OCC12C(O)CC3(C)C(=CCC4C5(C)CCC(OC(=O)C=C(C)C)C(C)(CO)C5CCC43C)C1CC(C)(C)C(O)C2O", "note": "(stereo not drawn) [Compound B27]", "Cytotoxicity activity": "moderate"}, {"compound": "CC(C)=CC(=O)OCC12C(OC(=O)C=C(C)C)CC3(C)C(=CCC4C5(C)CCC(O)C(C)(CO)C5CCC43C)C1CC(C)(C)C(O)C2O", "note": "(stereo not drawn) [Compound B28]", "Cytotoxicity activity": "moderate"}, {"compound": "CC(C)=CC(=O)OCC1(C)C(O)CCC2(C)C1CCC1(C)C2CC=C2C3CC(C)(C)C(OC(=O)C=C(C)C)C(O)C3(CO)C(O)CC21C", "note": "(stereo not drawn) [Compound B29]", "Cytotoxicity activity": "moderate"}, {"compound": "CC(C)=CC(=O)OCC1(C)C(O)CCC2(C)C1CCC1(C)C2CC=C2C3CC(C)(C)C(O)C(OC(=O)C=C(C)C)C3(CO)C(O)CC21C", "note": "(stereo not drawn) [Compound B30]", "Cytotoxicity activity": "moderate"}, {"compound": "CC(C)=CC(=O)OCC1(C)C(OC(=O)C=C(C)C)CCC2(C)C1CCC1(C)C2CC=C2C3CC(C)(C)C(O)C(O)C3(CO)C(O)CC21C", "note": "(stereo not drawn) [Compound B31]", "Cytotoxicity activity": "moderate"}, {"compound": "CC(C)=CC(=O)OCC1(C)C(O)CCC2(C)C1CCC1(C)C2CC=C2C3CC(C)(C)C(O)C(O)C3(CO)C(OC(=O)C=C(C)C)CC21C", "note": "(stereo not drawn) [Compound B32]", "Cytotoxicity activity": "moderate"}, {"compound": "C=CCCC(=O)OCC1(C)C(O)CCC2(C)C1CCC1(C)C2CC=C2C3CC(C)(C)C(O)C(O)C3(CO)C(O)CC21C", "note": "(stereo not drawn) [Compound C1]", "Cytotoxicity activity": "moderate"}, {"compound": "C=CCCC(=O)OCC12C(O)CC3(C)C(=CCC4C5(C)CCC(O)C(C)(CO)C5CCC43C)C1CC(C)(C)C(O)C2O", "note": "(stereo not drawn) [Compound C2]", "Cytotoxicity activity": "moderate"}, {"compound": "C=CCCC(=O)OCC1(C)C(O)CCC2(C)C1CCC1(C)C2CC=C2C3CC(C)(C)C(O)C(O)C3(COC(=O)CCC=C)C(O)CC21C", "note": "(stereo not drawn) [Compound C3]", "Cytotoxicity activity": "strong"}, {"compound": "C=CCCC(=O)OCC1(C)C(O)CCC2(C)C1CCC1(C)C2CC=C2C3CC(C)(C)C(OC(=O)CCC=C)C(O)C3(COC(=O)CCC=C)C(O)CC21C", "note": "(stereo not drawn) [Compound C4]", "Cytotoxicity activity": "moderate"}, {"compound": "C=CCCC(=O)OCC1(C)C(O)CCC2(C)C1CCC1(C)C2CC=C2C3CC(C)(C)C(O)C(OC(=O)CCC=C)C3(COC(=O)CCC=C)C(O)CC21C", "note": "(stereo not drawn) [Compound C5]", "Cytotoxicity activity": "moderate"}, {"compound": "C=CCCC(=O)OCC1(C)C(OC(=O)CCC=C)CCC2(C)C1CCC1(C)C2CC=C2C3CC(C)(C)C(O)C(O)C3(COC(=O)CCC=C)C(O)CC21C", "note": "(stereo not drawn) [Compound C6]", "Cytotoxicity activity": "moderate"}, {"compound": "C=CCCC(=O)OCC1(C)C(O)CCC2(C)C1CCC1(C)C2CC=C2C3CC(C)(C)C(O)C(O)C3(COC(=O)CCC=C)C(OC(=O)CCC=C)CC21C", "note": "(stereo not drawn) [Compound C7]", "Cytotoxicity activity": "moderate"}, {"compound": "C=CCCC(=O)OCC1(C)C(O)CCC2(C)C1CCC1(C)C2CC=C2C3CC(C)(C)C(OC(=O)CCC=C)C(OC(=O)CCC=C)C3(COC(=O)CCC=C)C(O)CC21C", "note": "(stereo not drawn) [Compound C8]", "Cytotoxicity activity": "weak"}]}]}
